Measurements: article PMC6321484, “Deep Eutectic Solvent-Based Ultrahigh Pressure Extraction of Baicalin from Scutellaria baicalensis Georgi” (Molecules, 2018)
In brackets after ≈: the same amount, converted by molar mass.

Test: Equilibrium solubility of baicalin in different solvents (excess compound, HPLC)
Assay type: physicochemical
Conditions: for Solubility of Baicalin: excess compound stirred at 40 °C for 2 h, HPLC
Description: Solubility tests were carried out using distilled water, 70% ethanol and DESs with an excess of the tested compound in a capped bottle and stirred at 40 °C for 2 h. The resulting mixture containing undissolved solid compounds were centrifuged. The supernatant was transferred to a 5 mL-microtube, diluted with methanol and vortexed to a homogeneous solution. The concentration of baicalin in the solution was monitored by HPLC. All solubility tests were performed in triplicate.

Question: With O=C(O)[C@H]1O[C@@H](Oc2cc3oc(-c4ccccc4)cc(=O)c3c(O)c2O)[C@H](O)[C@@H](O)[C@@H]1O [baicalin] as the compound, how does the solubility thermodynamic at 2 h (40 °C, organic solvent or mixture, thermodynamic from solid, solvent: DES-1, room temperature) read?
Answer: 22.7 mg/mL (≈ 50.9 mM)

Question: What about the “Solubility of Baicalin” value (solvent: 70% Ethanol) of the same compound?
Answer: 1.85 mg/g

Question: And the “Solubility of Baicalin” value (solvent: DES-1 (ChCl-lactic acid 1:1))?
Answer: 22.7 mg/g

Question: And the “Solubility of Baicalin” value (solvent: DES-2 (ChCl-glucose 1:1))?
Answer: 18.2 mg/g

Question: What about the “Solubility of Baicalin” value (solvent: DES-3 (ChCl-glycerol 1:1)) of the same compound?
Answer: 12.35 mg/g

Question: What about the “Solubility of Baicalin” value (solvent: DES-4 (ChCl-1,4-butanediol 1:1)) of the same compound?
Answer: 2.25 mg/g

Question: What about the “Solubility of Baicalin” value (solvent: DES-5 (ChCl-ethylene glycol 1:1)) of the same compound?
Answer: 17.8 mg/g

Question: And the “Solubility of Baicalin” value (solvent: Water)?
Answer: 0.18 mg/g
